pIC50: −log10 of the molar value. Activity calls are given as the source filed them. The rule behind the calls is not given here.
Assays:
[1] = Toxicity in BALB/c nude mouse xenografted with human HL-60 cells assessed as serum granulocytes content at 100 mg/kg, po qd for 16 days (reference value: 0.51X10^9/L); type: organism-based; conditions: in vivo, 384 h, time 16 day
[2] = molecular target: Phosphatidylinositol 4,5-bisphosphate 3-kinase catalytic subunit gamma isoform (Homo sapiens, UniProt P48736); assay: Inhibition of human PI3Kgamma by ADP-Glo assay; type: toxicity
HCT-116 [3] = assay: Synergistic antiproliferative activity against human HCT-116 cells assessed as combination index at 1 uM in presence of 100 nM doxorubicin by MTT assay; type: functional
HL-60 [4] = assay: Synergistic antiproliferative activity against human HL-60 cells assessed as combination index at 200 uM in presence of 0.1 uM doxorubicin by MTT assay; type: functional
HepG2 [5] = assay: Synergistic antiproliferative activity against Doxorubicin-resistant human HepG2 cells assessed as inhibition of cell growth in presence of 100 nM doxorubicin by MTT assay; type: functional, cell-based
HCT-116 [6] = assay: Induction of cell cycle arrest in human HCT-116 cells assessed as increase in accumulation of cells at G2/M phase at 1 uM incubated for 24 hrs in presence of 100 nM doxorubicin by PI staining based flow cytometry; type: functional
[7] = Toxicity in BALB/c nude mouse xenografted with human HL-60 cells assessed as MCHC level at 100 mg/kg, po qd for 16 days (reference value: 246 g/L); type: organism-based; conditions: in vivo, 384 h, time 16 day
MCF7 [8] = assay: Synergistic antiproliferative activity against human MCF7 cells assessed as combination index at 6.25 uM in presence of 0.1 uM doxorubicin by MTT assay; type: functional
MDA-MB-231 [9] = assay: Synergistic antiproliferative activity against human MDA-MB-231 cells assessed as combination index at 3.1 uM in presence of 0.1 uM doxorubicin by MTT assay; type: functional
HepG2 [10] = assay: Synergistic antiproliferative activity against Doxorubicin-resistant human HepG2 cells assessed as combination index at 6.25 uM in presence of 0.1 uM doxorubicin by MTT assay; type: functional
MDA-MB-231 [11] = assay: Synergistic antiproliferative activity against human MDA-MB-231 cells assessed as combination index at 0.1 uM in presence of 0.1 uM doxorubicin by MTT assay; type: functional
MDA-MB-231 [12] = assay: Synergistic antiproliferative activity against human MDA-MB-231 cells assessed as combination index at 1 uM in presence of 0.1 uM doxorubicin by MTT assay; type: functional
[13] = Plasma protein binding in rat assessed as free fraction; type: ADME, cell-free
MCF7 [14] = assay: Synergistic antiproliferative activity against human MCF7 cells assessed as combination index at 1 uM in presence of 0.1 uM doxorubicin by MTT assay; type: functional
MDA-MB-231 [15] = assay: Synergistic antiproliferative activity against human MDA-MB-231 cells assessed as combination index at 25 uM in presence of 0.1 uM doxorubicin by MTT assay; type: functional
[16] = Toxicity in BALB/c nude mouse xenografted with human HL-60 cells assessed as kidney morphological alterations at 100 mg/kg, po qd for 16 days by Hematoxylin and Eosin staining based analysis; type: organism-based; conditions: in vivo, 384 h, time 16 day
[17] = Cmax in Sprague-Dawley rat at 5 mg/kg, po; type: ADME, organism-based; parameters: dose 5 mg/kg, route po; conditions: in vivo
[18] = Toxicity in BALB/c nude mouse xenografted with human HL-60 cells assessed as serum monocytes content at 100 mg/kg, po qd for 16 days (reference value: 0.5X10^9/L); type: organism-based; conditions: in vivo, 384 h, time 16 day
HCT-116 [19] = assay: Disruption of mitochondrial function in human HCT-116 cells assessed as decrease in mitochondrial membrane potential by measuring proportion of cells with red fluorescence at 1 uM incubated for 24 hrs by JC-1 staining based flow cytometry (reference value: 99.4%); type: functional; parameters: scale not given: the % may be the effect or the level left
MDA-MB-231 [20] = assay: Synergistic antiproliferative activity against human MDA-MB-231 cells assessed as combination index at 0.5 uM in presence of 0.1 uM doxorubicin by MTT assay; type: functional
MCF7 [21] = assay: Synergistic antiproliferative activity against human MCF7 cells assessed as inhibition of cell growth in presence of 100 nM doxorubicin by MTT assay; type: functional, cell-based
[22] = Half life in Sprague-Dawley rat at 5 mg/kg, po; type: ADME, organism-based; conditions: in vivo
HepG2 [23] = assay: Synergistic antiproliferative activity against Doxorubicin-resistant human HepG2 cells assessed as combination index at 3.1 uM in presence of 0.1 uM doxorubicin by MTT assay; type: functional
HepG2 [24] = assay: Synergistic antiproliferative activity against Doxorubicin-resistant human HepG2 cells assessed as combination index at 100 uM in presence of 0.1 uM doxorubicin by MTT assay; type: functional
HepG2 [25] = assay: Synergistic antiproliferative activity against Doxorubicin-resistant human HepG2 cells assessed as combination index at 0.5 uM in presence of 0.1 uM doxorubicin by MTT assay; type: functional
HL-60 [26] = assay: Synergistic antiproliferative activity against human HL-60 cells assessed as combination index at 6.25 uM in presence of 0.1 uM doxorubicin by MTT assay; type: functional
[27] = Toxicity in BALB/c nude mouse xenografted with human HL-60 cells assessed as MPV level at 100 mg/kg, po qd for 16 days (reference value: 7.55 fL); type: organism-based; conditions: in vivo, 384 h, time 16 day
HCT-116 [28] = assay: Induction of apoptosis in human HCT-116 cells assessed as late apoptotic cells at 1 uM incubated for 24 hrs in presence of 100 nM doxorubicin by AnnexinV-FITC/PI staining based flow cytometry (reference value: 3.07%); type: functional
[29] = Toxicity in BALB/c nude mouse xenografted with human HL-60 cells assessed as platelets level at 100 mg/kg, po qd for 16 days (reference value: 738.5X10^9/L); type: organism-based; conditions: in vivo, 384 h, time 16 day
[30] = Toxicity in BALB/c nude mouse xenografted with human HL-60 cells assessed as liver morphological alterations at 100 mg/kg, po qd for 16 days by Hematoxylin and Eosin staining based analysis; type: organism-based; conditions: in vivo, 384 h, time 16 day
HL-60 [31] = assay: Synergistic antiproliferative activity against human HL-60 cells assessed as combination index at 50 uM in presence of 0.1 uM doxorubicin by MTT assay; type: functional
HL-60 [32] = assay: Synergistic antiproliferative activity against human HL-60 cells assessed as combination index at 12.5 uM in presence of 0.1 uM doxorubicin by MTT assay; type: functional
MCF7 [33] = assay: Synergistic antiproliferative activity against human MCF7 cells assessed as combination index at 50 uM in presence of 0.1 uM doxorubicin by MTT assay; type: functional
MCF7 [34] = assay: Synergistic antiproliferative activity against human MCF7 cells assessed as combination index at 25 uM in presence of 0.1 uM doxorubicin by MTT assay; type: functional
[35] = Intrinsic clearance in rat liver microsomes; type: ADME, Microsome; conditions: read-out: CLH
MCF7 [36] = assay: Synergistic antiproliferative activity against human MCF7 cells assessed as combination index at 200 uM in presence of 0.1 uM doxorubicin by MTT assay; type: functional
HCT-116 [37] = assay: Induction of apoptosis in human HCT-116 cells assessed as late apoptotic cells at 1 uM incubated for 24 hrs by AnnexinV-FITC/PI staining based flow cytometry (reference value: 3.07%); type: functional
MCF7 [38] = assay: Synergistic antiproliferative activity against human MCF7 cells assessed as combination index at 3.1 uM in presence of 0.1 uM doxorubicin by MTT assay; type: functional

Phosphatidylinositol 4,5-bisphosphate 3-kinase catalytic subunit gamma isoform, sequence (P48736 whole entry, canonical isoform): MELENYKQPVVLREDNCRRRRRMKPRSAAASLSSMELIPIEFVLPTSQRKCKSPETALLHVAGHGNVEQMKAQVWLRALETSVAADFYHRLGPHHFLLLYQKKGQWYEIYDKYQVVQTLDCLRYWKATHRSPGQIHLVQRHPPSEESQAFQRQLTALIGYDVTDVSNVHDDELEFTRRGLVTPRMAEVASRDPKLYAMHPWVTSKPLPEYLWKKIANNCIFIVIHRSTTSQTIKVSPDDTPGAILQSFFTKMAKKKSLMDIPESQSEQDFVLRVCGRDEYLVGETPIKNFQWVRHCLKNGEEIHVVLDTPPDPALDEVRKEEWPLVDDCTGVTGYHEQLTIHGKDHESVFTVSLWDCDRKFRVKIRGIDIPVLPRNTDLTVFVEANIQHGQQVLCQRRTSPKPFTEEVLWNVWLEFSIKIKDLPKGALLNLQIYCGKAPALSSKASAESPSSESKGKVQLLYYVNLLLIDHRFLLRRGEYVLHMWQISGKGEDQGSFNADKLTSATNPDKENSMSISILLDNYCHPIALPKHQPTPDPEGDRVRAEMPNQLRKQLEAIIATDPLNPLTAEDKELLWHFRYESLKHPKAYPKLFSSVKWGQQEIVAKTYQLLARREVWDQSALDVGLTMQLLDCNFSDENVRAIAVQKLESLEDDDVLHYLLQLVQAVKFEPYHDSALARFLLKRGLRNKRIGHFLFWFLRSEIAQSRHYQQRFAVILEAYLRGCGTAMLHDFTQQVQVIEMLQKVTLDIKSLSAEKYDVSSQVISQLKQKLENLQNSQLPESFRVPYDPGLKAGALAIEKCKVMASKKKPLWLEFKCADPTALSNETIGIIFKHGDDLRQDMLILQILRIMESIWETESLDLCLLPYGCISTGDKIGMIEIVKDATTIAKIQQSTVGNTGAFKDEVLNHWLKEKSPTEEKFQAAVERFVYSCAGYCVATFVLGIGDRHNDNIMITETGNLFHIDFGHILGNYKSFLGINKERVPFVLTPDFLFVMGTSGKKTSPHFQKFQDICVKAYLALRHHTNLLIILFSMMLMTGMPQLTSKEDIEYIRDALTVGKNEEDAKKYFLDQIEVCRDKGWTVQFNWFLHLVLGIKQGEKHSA

For `Cc1cc2ncnn2cc1Nc1ncc2c(n1)N(C1CCOCC1)CC(=O)N2C`, the Activity [1] was 0.49 10^9/L, the pIC50 [2] was 6.55 and the CI (HCT-116 [3]) was 0.74. For the same compound, the CI (HL-60 [4]) was 0.9812, the Activity (HepG2 [5]) was “Active” and the Activity (HCT-116 [6]) was 57.27%. For the same compound, the Activity [7] was 249 g/L, the CI (MCF7 [8]) was 0.06841 and the CI (MDA-MB-231 [9]) was 0.3259. The CI (HepG2 [10]) was 0.0268, the CI (MDA-MB-231 [11]) was 0.4431 and the CI (MDA-MB-231 [12]) was 0.2676. For the same compound, the fraction unbound [13] was 0.667, the CI (MCF7 [14]) was 0.03832 and the CI (MDA-MB-231 [15]) was 0.5933. For the same compound, the Activity [16] was “Non-Toxic”, the Cmax [17] was 0.81 µg/mL and the Activity [18] was 0.51 10^9/L. The Activity (HCT-116 [19]) was 96.4%, the CI (MDA-MB-231 [20]) was 0.3617 and the Activity (MCF7 [21]) was “Active”. The half-life [22] was 1.59 h, the CI (HepG2 [23]) was 0.02104 and the CI (HepG2 [24]) was 0.1244. For the same compound, the CI (HepG2 [25]) was 0.01657, the CI (HL-60 [26]) was 0.03585 and the Activity [27] was 6.85 fL. The Activity (HCT-116 [28]) was 7.51%, the Activity [29] was 750 10^9/L and the Activity [30] was “Non-Toxic”. The CI (HL-60 [31]) was 0.2758, the CI (HL-60 [32]) was 0.06945 and the CI (MCF7 [33]) was 0.1215. For the same compound, the CI (MCF7 [34]) was 0.06966, the microsomal CLint [35] was less than 9.6 µL/min/mg and the CI (MCF7 [36]) was 0.2697. For the same compound, the Activity (HCT-116 [37]) was 4.05% and the CI (MCF7 [38]) was 0.05143.

Source: ChEMBL document CHEMBL5120836, “Discovery of novel 7,8-dihydropteridine-6(5H)-one-based DNA-PK inhibitors as potential anticancer agents via scaffold hopping strategy” (Eur J Med Chem, 2022)
